Data as given in ChEMBL document CHEMBL1201862, “PubChem BioAssay data set” (2004).
Values belong to the molecule of their own block, whether it stands above or below them. Active and inactive are the calls of the source.

Tests used:
[1] = HIV-1 Vif–A3G interaction blockers – biochemical, TR-FRET, GST-Vif 1-94, biotin-A3G peptide, dose response retest, primary screen (AID 1117319); type: functional;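 note: TR-FRET signal of purified GST-Vif binding a biotinylated A3G peptide; inhibitors lower the FRET signal by blocking Vif and A3G binding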
[2] = target: Mitogen-activated protein kinase 10 (Homo sapiens, UniProt P53779); assay: Dose response biochemical screening assay for inhibitors of c-Jun N-Terminal Kinase 3 (JNK3). [Related pubchem assays: 746 ]
[3] = viability loss in human Jurkat cells – cell-based, luminescence, cytotoxicity control for P. falciparum gametocyte viability project, dose response (AID 1117277); type: functional;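 note: potency reflects loss of cellular ATP meaning fewer viable cells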
[4] = viability inhibitors of stage V gametocytes – luminescence, dose response (AID 1117278); type: functional, cell-based;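 note: gametocytes exposed to compound for 24 hours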
[5] = target: T1, Aryl hydrocarbon receptor (Homo sapiens, UniProt P35869); assay: Luminescence-based cell-based high throughput dose response assay for activators of the Aryl Hydrocarbon Receptor (AHR). [Related pubchem assays: 2796 (Primary screen (AHR activators in singlicate)), 2845 (Confirmation screen (AHR activators in triplicate)), 434939 (Counterscreen (PXR activators in triplicate)), 2804 (Summary (AHR activators))]; type: ADME
T1 sequence (P35869 whole entry): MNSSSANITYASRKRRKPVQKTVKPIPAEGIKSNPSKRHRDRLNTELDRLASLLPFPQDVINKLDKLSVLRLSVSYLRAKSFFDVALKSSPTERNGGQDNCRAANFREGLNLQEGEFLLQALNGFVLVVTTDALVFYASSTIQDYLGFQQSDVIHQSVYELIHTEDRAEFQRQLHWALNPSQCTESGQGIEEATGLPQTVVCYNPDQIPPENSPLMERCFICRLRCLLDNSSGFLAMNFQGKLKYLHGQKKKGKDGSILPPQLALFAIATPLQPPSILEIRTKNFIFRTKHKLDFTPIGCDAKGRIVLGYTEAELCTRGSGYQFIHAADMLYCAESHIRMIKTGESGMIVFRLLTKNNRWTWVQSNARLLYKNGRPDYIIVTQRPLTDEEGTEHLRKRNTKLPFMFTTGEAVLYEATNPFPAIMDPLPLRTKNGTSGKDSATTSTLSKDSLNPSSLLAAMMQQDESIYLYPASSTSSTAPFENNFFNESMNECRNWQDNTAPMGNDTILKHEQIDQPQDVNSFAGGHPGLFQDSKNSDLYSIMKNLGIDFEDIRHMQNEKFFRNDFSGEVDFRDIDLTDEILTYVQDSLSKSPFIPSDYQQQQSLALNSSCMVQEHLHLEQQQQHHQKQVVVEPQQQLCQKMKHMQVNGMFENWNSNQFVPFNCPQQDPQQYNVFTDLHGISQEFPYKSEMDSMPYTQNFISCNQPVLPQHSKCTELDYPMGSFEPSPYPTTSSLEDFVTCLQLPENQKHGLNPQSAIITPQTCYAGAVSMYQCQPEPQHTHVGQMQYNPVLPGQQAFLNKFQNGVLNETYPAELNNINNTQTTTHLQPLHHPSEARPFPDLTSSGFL

[6] = NIH3T3 cell viability loss – ATP luminescence, mouse fibroblasts, counter-screen, dose response (AID 2010); type: functional, cell-based;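 note: cells exposed to compound for about 90 hours before reading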
[7] = Trypanosoma cruzi growth suppression in host cells – NIH3T3 host cells, beta-gal luminescence, confirmation (AID 2044); type: functional, cell-based;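 note: intracellular parasites grown in NIH/3T3 mouse fibroblasts as host cells; luminescent beta-galactosidase reporter signal from transgenic T. cruzi replicating inside host cells; inhibitors lower the luminescence signal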
[8] = target: Sphingosine 1-phosphate receptor 2 (Homo sapiens, UniProt O95136); assay: Dose Response Cell Based Assay for Antagonists of the S1P2 Receptor. [Related pubchem assays: 856, 736 ]; type: functional
[9] = RKO cell viability reduction, dose response, CellTiter-Glo luminescence (AID 1117322); type: functional
[10] = Reduced DLD-1 viability, concentration-response, CellTiter-Glo luminescence (AID 1117352); type: functional
[11] = cytotoxicity toward HCT116 cells – cell-based, CellTiter-Glo luminescence, IC50, dose response (AID 1117332); type: functional; details: HCT-116
[12] = cytotoxicity toward HT-29 cells – cell-based, CellTiter-Glo luminescence, IC50, dose response (AID 1117330); type: functional
[13] = HCT116 cell viability decrease, GSK3B pretreatment – CellTiter-Glo, IC50, dose response (AID 1117339); type: functional; details: HCT-116
[14] = SNU-C1 cell viability reduction, dose response, CellTiter-Glo luminescence (AID 1117323); type: functional, cell-based
[15] = cytotoxicity toward Colo320 cells – cell-based, CellTiter-Glo luminescence, IC50, dose response (AID 1117334); type: functional; details: COLO 320
[16] = CellTiter-Glo luminescence survival assay, SW480 colon tumor line, concentration-response curve, half-maximal inhibitory concentration (AID 1117338); type: functional

Chain of Mitogen-activated protein kinase 10 (P53779 whole entry): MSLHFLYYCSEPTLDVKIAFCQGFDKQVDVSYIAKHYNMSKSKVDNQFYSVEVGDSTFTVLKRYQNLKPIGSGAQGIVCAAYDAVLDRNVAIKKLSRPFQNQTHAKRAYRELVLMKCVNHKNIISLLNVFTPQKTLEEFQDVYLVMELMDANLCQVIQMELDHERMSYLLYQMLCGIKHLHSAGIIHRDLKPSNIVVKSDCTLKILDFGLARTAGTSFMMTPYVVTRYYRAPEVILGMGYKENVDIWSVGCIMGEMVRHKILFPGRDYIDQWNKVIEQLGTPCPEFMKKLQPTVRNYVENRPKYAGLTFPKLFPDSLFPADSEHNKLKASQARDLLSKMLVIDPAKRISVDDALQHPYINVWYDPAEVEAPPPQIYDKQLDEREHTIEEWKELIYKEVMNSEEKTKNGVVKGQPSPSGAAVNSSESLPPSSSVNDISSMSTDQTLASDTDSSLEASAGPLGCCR
Chain of Sphingosine 1-phosphate receptor 2 (O95136 whole entry): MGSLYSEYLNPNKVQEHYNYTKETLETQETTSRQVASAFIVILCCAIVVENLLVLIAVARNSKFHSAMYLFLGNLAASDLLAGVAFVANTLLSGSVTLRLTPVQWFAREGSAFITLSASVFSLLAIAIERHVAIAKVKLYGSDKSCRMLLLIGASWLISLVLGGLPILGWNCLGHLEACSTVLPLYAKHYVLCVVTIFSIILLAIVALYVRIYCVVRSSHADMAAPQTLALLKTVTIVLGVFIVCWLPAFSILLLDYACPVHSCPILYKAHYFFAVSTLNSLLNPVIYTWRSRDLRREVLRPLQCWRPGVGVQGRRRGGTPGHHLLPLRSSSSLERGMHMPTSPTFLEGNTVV

- IC50 [1]: > 100 µM (active)
Compound: CCC(CC)c1nc2cc(OC)c(OC)cc2c(=O)o1

- IC50 [2]: 11.3 µM (not active)
Compound: Cc1cc(NC(=O)CSC2=Nc3ccccc3C3=NC(Cc4ccccc4)C(=O)N23)[nH]n1 (centres undefined)

Compound: Cc1cc(C)cc(N2CC(C(=O)O)CC2=O)c1 (centres undefined)
- IC50 [3]: > 83.4 µM (inactive)
- IC50 [4]: > 109 µM (inactive)

- EC50 [5]: 0.0686 µM (active)
Compound: COc1ccccc1NC(=O)c1ccc(C(=O)Nc2ccccc2OC)nc1

Compound: Cn1c(-c2c(N)n(CCCc3ccccc3)c3nc4ccccc4nc23)nc2ccccc21
- EC50 [6]: > 30 µM (not active)
- EC50 [7]: 1.17 µM (active)
- IC50 [8]: 8 µM (active)

Compound: O=C(Cc1ccc(-c2ccccc2)cc1)NC1CCCC1
- IC50 [3]: > 83.2 µM (inactive)
- IC50 [4]: > 109 µM (inactive)

- IC50 [2]: 60.1 µM (not active)
Compound: COC(=O)c1c(C#N)c(N)nc2c1CCCC2

Compound: CCC=CCC=CCC=CCCCCCCCC(=O)O
- IC50 [9]: > 20 µM (inactive)
- IC50 [10]: > 20 µM (inactive)
- IC50 [11]: > 20 µM (inactive)
- IC50 [12]: > 20 µM (inactive)
- IC50 [13]: > 20 µM (inactive)
- IC50 [14]: > 20 µM (inactive)
- IC50 [15]: > 20 µM (inactive)
- IC50 [16]: > 20 µM (inactive)
